In patent publication US20260053764A1, “COMPOSITION FOR PREVENTING DETERIORATION IN COGNITIVE FUNCTION AND/OR IMPROVING COGNITIVE FUNCTION” (PHARMA FOODS INTERNATIONAL CO., LTD., priority 2020, published 2026):

Test system: cognitive function of a human
Assay: Cognitrax test in placebo-controlled randomized double-blind clinical tests A and B
Assay type: in vivo
Parameters: Reaction time / Complex attention / Cognitive flexibility / Social acuity / Non-verbal reasoning / Working memory / Continuous attention / Simple attention: scale not given here
Text: A Cognitrax test is known as such an examination that can assess a plurality of domains or items of cognitive function. The Cognitrax test is a cognitive function examination service practiced on the Web based on the cognitive function examination technique developed by CNS Vital Signs in the United States. In the Cognitrax test, among a total of 10 types of tests, which are verbal memory test, visual memory test, finger tapping test, symbol digit coding test (SDC test), Stroop test, shifting attention test, continuous performance test, perception of emotion test, reasoning test and four part continuous performance test, a test is carried out in accordance with the purpose of the examination to digitize the examination result regarding each of a total of 16 types of items at most, which are neurocognition index, composite memory, verbal memory, visual memory, psychomotor speed, reaction time, complex attention, cognitive flexibility, processing speed, executive function, social acuity, non-verbal reasoning, working memory, continuous attention, simple attention and motor speed.
Two types of placebo-controlled randomized double-blind two-group parallel comparison tests were carried out as clinical tests. […] Specifically, capsules comprising 100 mg of dextrin per capsule were used as the placebo food.
The screening examination was carried out to select 60 subjects for each test (a total of 120 subjects). MMSE (Mini Mental State Examination) is an examination for assessing the degree of progression of dementia or the like based on the score thereof with 30 as the perfect score, wherein dementia is suspected with a score of 23 or lower.
• (1) Japanese male and female at the age of 40 or higher • (2) People aware of reduction in cognitive function • (3) People who can continuously ingest the test food every day for 12 weeks • (4) People with an MMSE score of 24 or higher • (5) People who have received sufficient explanation of the purpose/content of the clinical test, have the ability to give consent, voluntarily applied to participate in the clinical test with sufficient understanding, and gave consent to the participation in the clinical test on paper
The total of 120 subjects were randomly divided into test A active group, test A placebo group, test B active group and test B placebo group with 30 subjects in each group. Each subject of the test A active group ingested two capsules of the active food, each subject of the test A placebo group ingested two capsules of the placebo food, each subject of the test B active group ingested one capsule of the active food and each subject of the test B placebo group ingested one capsule of the placebo food.
Each subject followed the schedule shown in the table below and ingested one or two of the assigned capsules together with water for 12 weeks from two weeks after the initial screening examination. All subjects had no particular instruction during the ingestion period and freely took their meals.
As shown with ● in the test schedule in Table 1, Cognitrax was carried out a total of five times, which are upon screening, before starting test food sample ingestion, after four weeks of ingestion, after eight weeks of ingestion and after twelve weeks of ingestion, and the RBANS neuropsychological test was carried out a total of two times, which are before staring test food ingestion and after twelve weeks of ingestion.

[1] = test A 200 mg, before ingestion
[2] = test A 200 mg, before ingestion, mean ± SD
[3] = test A, after eight weeks of ingestion

Structure (SMILES): NCCCC(=O)O [GABA, γ-aminobutyric acid]
- Cognition flexibility: difference between active food and placebo food groups (test A 200 mg, 4 w): 2.1
- Complex attention: difference between active food and placebo food groups (test A 200 mg, 4 w): 0.6
- Composite memory: difference between active food and placebo food groups (test A 200 mg, 4 w): −0.9
- Continuous attention: difference between active food and placebo food groups (test A 200 mg, 4 w): 1.1
- Executive function: difference between active food and placebo food groups (test A 200 mg, 4 w): 2.4
- Motor speed: difference between active food and placebo food groups (test A 200 mg, 4 w): 6.0
- Non-verbal reasoning: difference between active food and placebo food groups (test A 200 mg, 4 w): 4.2
- Processing speed: difference between active food and placebo food groups (test A 200 mg, 4 w): 4.1
- Psychomotor speed: difference between active food and placebo food groups (test A 200 mg, 4 w): 7.1
- Reaction time: difference between active food and placebo food groups (test A 200 mg, 4 w): 5.0
- Simple attention: difference between active food and placebo food groups (test A 200 mg, 4 w): 0.9
- Social acuity: difference between active food and placebo food groups (test A 200 mg, 4 w): −2.2
- Verbal memory: difference between active food and placebo food groups (test A 200 mg, 4 w): 0.2
- Visual memory: difference between active food and placebo food groups (test A 200 mg, 4 w): −1.4
- Working memory: difference between active food and placebo food groups (test A 200 mg, 4 w): 3.0
- Cognitive flexibility (test A 200 mg, 4 w, mean ± SD): 104.4 ± 9.8
- Executive function (test A 200 mg, 4 w, mean ± SD): 104.5 ± 9.8
- Non-verbal reasoning (test A 200 mg, 4 w, mean ± SD): 102.6 ± 9.1
- Reaction time (test A 200 mg, 4 w, mean ± SD): 99.3 ± 0.4
- Simple attention (test A 200 mg, 4 w, mean ± SD): 100.2 ± 10.5
- Social acuity (test A 200 mg, 4 w, mean ± SD): 93.2 ± 18.9
- Working memory (test A 200 mg, 4 w, mean ± SD): 108.5 ± 11.2
- Cognition flexibility: difference between active food and placebo food groups (test A 200 mg, 8 w): 4.6
- Complex attention: difference between active food and placebo food groups (test A 200 mg, 8 w): 1.3
- Composite memory: difference between active food and placebo food groups (test A 200 mg, 8 w): −2.9
- Continuous attention: difference between active food and placebo food groups (test A 200 mg, 8 w): 5.6
- Executive function: difference between active food and placebo food groups (test A 200 mg, 8 w): 4.9
- Motor speed: difference between active food and placebo food groups (test A 200 mg, 8 w): 3.9
- Non-verbal reasoning: difference between active food and placebo food groups (test A 200 mg, 8 w): −2.2
- Processing speed: difference between active food and placebo food groups (test A 200 mg, 8 w): 3.5
- Psychomotor speed: difference between active food and placebo food groups (test A 200 mg, 8 w): 5.2
- Reaction time: difference between active food and placebo food groups (test A 200 mg, 8 w): −0.6
- Simple attention: difference between active food and placebo food groups (test A 200 mg, 8 w): −0.3
- Social acuity: difference between active food and placebo food groups (test A 200 mg, 8 w): −0.3
- Verbal memory: difference between active food and placebo food groups (test A 200 mg, 8 w): −6.3
- Visual memory: difference between active food and placebo food groups (test A 200 mg, 8 w): 1.4
- Working memory: difference between active food and placebo food groups (test A 200 mg, 8 w): 7.2
- Cognitive flexibility (test A 200 mg, 8 w, mean ± SD): 108.2 ± 8.6
- Executive function (test A 200 mg, 8 w, mean ± SD): 108.5 ± 8.6
- Non-verbal reasoning (test A 200 mg, 8 w, mean ± SD): 104.9 ± 12.5
- Reaction time (test A 200 mg, 8 w, mean ± SD): 94.0 ± 21.9
- Simple attention (test A 200 mg, 8 w, mean ± SD): 99.2 ± 14.9
- Social acuity (test A 200 mg, 8 w, mean ± SD): 91.3 ± 20.8
- Working memory (test A 200 mg, 8 w, mean ± SD): 113.4 ± 9.7
- Cognition flexibility: difference between active food and placebo food groups (test A 200 mg, 12 w): 1.4
- Complex attention: difference between active food and placebo food groups (test A 200 mg, 12 w): 1.7
- Composite memory: difference between active food and placebo food groups (test A 200 mg, 12 w): −5.0
- Continuous attention: difference between active food and placebo food groups (test A 200 mg, 12 w): 3.7
- Executive function: difference between active food and placebo food groups (test A 200 mg, 12 w): 1.4
- Motor speed: difference between active food and placebo food groups (test A 200 mg, 12 w): 6.1
- Non-verbal reasoning: difference between active food and placebo food groups (test A 200 mg, 12 w): 6.8
- Processing speed: difference between active food and placebo food groups (test A 200 mg, 12 w): 3.1
- Psychomotor speed: difference between active food and placebo food groups (test A 200 mg, 12 w): 6.4
- Reaction time: difference between active food and placebo food groups (test A 200 mg, 12 w): 5.5
- Simple attention: difference between active food and placebo food groups (test A 200 mg, 12 w): 5.5
- Social acuity: difference between active food and placebo food groups (test A 200 mg, 12 w): −8.0
- Verbal memory: difference between active food and placebo food groups (test A 200 mg, 12 w): −3.1
- Visual memory: difference between active food and placebo food groups (test A 200 mg, 12 w): −4.6
- Working memory: difference between active food and placebo food groups (test A 200 mg, 12 w): 4.2
- Cognitive flexibility (test A 200 mg, 12 w, mean ± SD): 107.5 ± 7.3
- Continuous attention (test A 200 mg, 12 w, mean ± SD): 112.9 ± 8.2
- Reaction time (test A 200 mg, 12 w, mean ± SD): 100.7 ± 10.4
- Simple attention (test A 200 mg, 12 w, mean ± SD): 97.9 ± 17.0
- Social acuity (test A 200 mg, 12 w, mean ± SD): 89.0 ± 23.1
- Cognition flexibility: difference between active food and placebo food groups [1]: 4.4
- Complex attention: difference between active food and placebo food groups [1]: 3.4
- Composite memory: difference between active food and placebo food groups [1]: 5.6
- Continuous attention: difference between active food and placebo food groups [1]: 3.3
- Executive function: difference between active food and placebo food groups [1]: 4.5
- Motor speed: difference between active food and placebo food groups [1]: 6.7
- Non-verbal reasoning: difference between active food and placebo food groups [1]: 3.7
- Processing speed: difference between active food and placebo food groups [1]: 3.6
- Psychomotor speed: difference between active food and placebo food groups [1]: 7.1
- Reaction time: difference between active food and placebo food groups [1]: 4.5
- Simple attention: difference between active food and placebo food groups [1]: 2.2
- Social acuity: difference between active food and placebo food groups [1]: −6.4
- Verbal memory: difference between active food and placebo food groups [1]: 4.6
- Visual memory: difference between active food and placebo food groups [1]: 4.0
- Working memory: difference between active food and placebo food groups [1]: 3.5
- Cognitive flexibility [2]: 102.5 ± 9.4
- Complex attention [2]: 105.6 ± 9.8
- Executive function [2]: 102.8 ± 9.0
- Non-verbal reasoning [2]: 102.4 ± 14.9
- Reaction time [2]: 96.6 ± 14.5
- Simple attention [2]: 97.9 ± 17.4
- Social acuity [2]: 87.9 ± 17.9
- scores regarding continuous attention, GABA group compared to the placebo group [3]: significant improvement
- scores regarding working memory, GABA group compared to the placebo group [3]: significant improvement
- scores regarding reasoning, GABA group compared to the placebo group (test A, after twelve weeks of ingestion): significant improvement
